# Values of other authors in PMC8386747, “Structure–activity relationship, in vitro and in vivo evaluation of novel dienyl sulphonyl fluorides as selective BuChE inhibitors for the treatment of Alzheimer's disease” (Journal of Enzyme Inhibition and Medicinal Chemistry, 2021).
# What was measured:
# BuChE = test system: BuChE; set-up: method as in PMID 31136894; settings: cited from earlier work
# BACE-1 = test system: BACE-1; set-up: method as in PMID 28749667, PMID 26696252; settings: cited from earlier work
# GSK-3β = test system: GSK-3β; set-up: method as in PMID 28749667, PMID 26696252; settings: read-out: GSK-3μ IC50; cited from earlier work
SMILES,IC50 (BuChE),IC50 (BACE-1),IC50 (GSK-3β)
O=C1c2cc(NS(=O)(=O)c3ccccc3OC(F)(F)F)ccc2NC2C3Nc4ccccc4C3CCN12 (stereo not drawn) [Rutaecarpine-6n],3.6 µM,–,–
COc1cc(/C=C/C(O)=C/C(=O)/C=C/c2ccc(OCc3ccccc3)cc2)ccc1O [curcumin derivative],–,0.97 µM,0.9 µM
